# Laboratory results as given in publication PMC9776540, “Therapeutic Potential of a Water-Soluble Silver-Diclofenac Coordination Polymer on 3D Pancreatic Cancer Spheroids” (Journal of Medicinal Chemistry, 2022).
# Structures can show the parent of a compound that is named as a salt.
# Tests used:
# PANC-1 cells = details: PANC-1, 1 at IC50, others at molar ratio 1:1:1, 72 h after treatment
# Protocol: (§1) MCF7 cell line (human breast adenocarcinoma, morphology: epithelial-like, ATCC: HTB-22), A549 cell […]
# (§2) keratinocyte, morphology: epidermal, CSL Cell Lines Service GmbH); were cultured in Dulbecco’s Modified Eagle’s Medium (DMEM, Corning) with phenol red, supplemented with 10% fetal bovine serum (FBS) and with 1% streptomycin/penicillin. […]
# (§3) from metastatic site: brain, ATCC: HTB-81) and MCR-5 cell line (primary line of human pulmonary […]
# (§4) 10% fetal bovine serum (FBS). Cultures were incubated at 37 °C under a humidified atmosphere containing 5% CO2. Cells were transferred using a solution containing 0.05% trypsin and 0.5 mM EDTA.
# All media and other ingredients were purchased from ALAB, Poland. […]
# Acridine Orange (OA) and Propidium Iodide PI Staining
# AO is a nucleic acid-binding fluorophore that is cell membrane permeable and suitable for selective staining of nucleated living cells. PI is a nucleic acid-binding dye that is impermeable to live cells and suitable for staining dead or dying nucleated cells. All live, nucleated cells fluoresce green due to AO, and dead, nucleated cells are stained with both AO and PI and fluoresce red. For analysis of 1-induced
# [1] = comparison values, no method or reference printed at the place; cited from earlier work
# MCF-7 = assay: MTT survival test, surviving fraction (Table S3); assay type: cell-based, human
# Protocol: (§5) 24, and 72 h. After each incubation time, the cells were washed with PBS. Then, fresh medium (supplemented with 10% FSB) was added, and the cells were incubated under standard conditions for another 24 h (6h + 24h, 24h + 24h, 72h + 24h). After this time, the MTT survival test was done. Surviving fraction given in % was estimated with relation to untreated cells. In the case of 6h + 24h and 24h + 24h approaches, the cells were seeded at 10 000 cells per well, while in the case of 72h + 24h at […]
# A549 [2] = assay: MTT survival test, surviving fraction (Table S3); assay type: cell-based, human
# Protocol: as §5
# DU-145 [3] = assay: MTT survival test, surviving fraction (Table S3); assay type: cell-based, human
# Protocol: as §5
# PANC-1 [4] = assay: MTT survival test, surviving fraction (Table S3); assay type: cell-based, human
# Protocol: as §5
# HaCat [5] = assay: MTT survival test, surviving fraction (Table S3); assay type: cell-based, human
# Protocol: as §5
# pBR322 plasmid = assay: DNA strand break analysis, agarose gel electrophoresis; assay type: biochemical; details: pBR322, 24 h, even at high concentration (500 μM)
# Protocol: Then, the interaction between DNA and diclofenac, PTA, or 1 was evaluated by the gel electrophoresis of pBR322 plasmid to determine an ability to cause double- and/or single-strand DNA damages (Figure 6D). The double-strand damage may result in the appearance of different forms of DNA (linear form III and relaxed form II), which can be quantified by densitometry analysis (Figure 6E).
# DNA Strand Break Analysis
# The ability of 1, PTA and diclofenac to induce single- or double-strand breaks in plasmid DNA was tested
# with the pBR322 plasmid (c = 0.5 mg/mL). All compounds were dissolved in water (c = 1 µM-500 µM).
# After 1 h incubation at 37 °C, the reaction mixtures (20 μL) were mixed with 3 μL of loading buffer
# (bromophenol blue in 30% glycerol) and loaded on 1% agarose gels, containing EB, in TBE buffer (90
# mM Tris–borate, 20 mM EDTA, pH = 8.0). Gel electrophoresis was performed at a constant voltage of
# 100 V (4 V/cm) for 60 min. The gel was photographed and processed with a Digital Imaging System
# (Syngen Biotech). For the densitometric analysis the UltraQuant 6.0 program was used.
# MCF7 = assay: MTT cytotoxicity assay (IC50); assay type: cell-based, human; details: Homo sapiens; MCF7, after 72 h incubation, MTT, vs untreated control cells; read-out: IC50
# Protocol: as §1, §2, §3, §4
# (§6) All media and other ingredients were purchased from ALAB, Poland.
# (§7) Cytotoxicity was assessed by MTT assay performed according the protocols described elsewhere.S1 In brief, 1×10^4 cells per well, seeded in 96-well flat bottom microtiter plate, were incubated with the tested compounds (in the appropriate media) at various range of concentrations for 24 h. After that time, solutions of compounds were washed out, cells were washed three times with PBS and fresh medium was applied. After next 72 h cell viability was determined using the Hill equation (Origin 9.0) with regard to the untreated cells (control), where y0 – untreated cell control (which was set to 100% viability), y100 – a lysis control (where the cells were treated with 0.5% triton X-100 was set to 0% […]
# (§8) [c] at which the viability of the cells reaches 50%, H – the Hill coefficient (describing cooperativity):
# (§9) Each compound concentration was tested in five replicates and repeated at least three times.
# (§10) Determined values of IC50 are given as mean + S.D. (Standard Deviation).
# (§11) Cisplatin was tested as a reference anticancer drug. […]
# MRC5 = assay: MTT cytotoxicity assay (IC50); assay type: cell-based, human; details: Homo sapiens; MRC5 normal cells, after 72 h incubation, MTT, vs untreated control cells; read-out: IC50
# Protocol: as §1, §2, §3, §4, §6, §7, §8, §9, §10, §11
# A549 [6] = assay: MTT cytotoxicity assay (IC50); assay type: cell-based, human; details: Homo sapiens; A549, after 72 h incubation, MTT, vs untreated control cells; read-out: IC50
# Protocol: as §1, §2, §3, §4, §6, §7, §8, §9, §10, §11
# DU-145 [7] = assay: MTT cytotoxicity assay (IC50); assay type: cell-based, human; details: Homo sapiens; DU-145, after 72 h incubation, MTT, vs untreated control cells; read-out: IC50
# Protocol: as §1, §2, §3, §4, §6, §7, §8, §9, §10, §11
# PANC-1 [8] = assay: MTT cytotoxicity assay (IC50); assay type: cell-based, human; details: Homo sapiens; PANC-1, after 72 h incubation, MTT, vs untreated control cells; read-out: IC50
# Protocol: as §1, §2, §3, §4, §6, §7, §8, §9, §10, §11
# HaCat [9] = assay: MTT cytotoxicity assay (IC50); assay type: cell-based, human; details: Homo sapiens; HaCat normal cells, after 72 h incubation, MTT, vs untreated control cells; read-out: IC50
# Protocol: as §1, §2, §3, §4, §6, §7, §8, §9, §10, §11
smiles,measurement,setting,value
"O=C(O)Cc1ccccc1Nc1c(Cl)cccc1Cl [NaDf, diclofenac sodium salt]",cytotoxicity seen by AO/PI staining,PANC-1 cells,did not induce visible cytotoxicity
same,log P,[1],1.4
same,surviving fraction,"MCF-7; MCF-7, 6h + 24h, dil. 10 000x (stocks: diclofenac 0.918, PTA 0.483, AgNO3 0.326 mg/mL)",102.6 ± 13.4%
same,surviving fraction,"MCF-7; MCF-7, 6h + 24h, dil. 100x (stocks: diclofenac 0.918, PTA 0.483, AgNO3 0.326 mg/mL)",78.6 ± 12.3%
same,surviving fraction,"MCF-7; MCF-7, 6h + 24h, dil. 1000x (stocks: diclofenac 0.918, PTA 0.483, AgNO3 0.326 mg/mL)",89.5 ± 9.8%
same,surviving fraction,"MCF-7; MCF-7, 24h + 24h, dil. 10 000x (stocks: diclofenac 0.918, PTA 0.483, AgNO3 0.326 mg/mL)",98.2 ± 9.8%
same,surviving fraction,"MCF-7; MCF-7, 24h + 24h, dil. 1000x (stocks: diclofenac 0.918, PTA 0.483, AgNO3 0.326 mg/mL)",88.7 ± 10.6%
same,surviving fraction,"MCF-7; MCF-7, 72h + 24h, dil. 10 000x (stocks: diclofenac 0.918, PTA 0.483, AgNO3 0.326 mg/mL)",97.8 ± 7.7%
same,surviving fraction,"MCF-7; MCF-7, 72h + 24h, dil. 1000x (stocks: diclofenac 0.918, PTA 0.483, AgNO3 0.326 mg/mL)",85.4 ± 5.3%
same,surviving fraction,"A549 [2]; A549, 6h + 24h, dil. 10 000x (stocks: diclofenac 0.918, PTA 0.483, AgNO3 0.326 mg/mL)",99.7 ± 4.3%
same,surviving fraction,"A549 [2]; A549, 6h + 24h, dil. 100x (stocks: diclofenac 0.918, PTA 0.483, AgNO3 0.326 mg/mL)",72.5 ± 6.8%
same,surviving fraction,"A549 [2]; A549, 6h + 24h, dil. 1000x (stocks: diclofenac 0.918, PTA 0.483, AgNO3 0.326 mg/mL)",88.7 ± 10.8%
same,surviving fraction,"A549 [2]; A549, 24h + 24h, dil. 10 000x (stocks: diclofenac 0.918, PTA 0.483, AgNO3 0.326 mg/mL)",98.5 ± 10.9%
same,surviving fraction,"A549 [2]; A549, 24h + 24h, dil. 100x (stocks: diclofenac 0.918, PTA 0.483, AgNO3 0.326 mg/mL)",70.9 ± 8.9%
same,surviving fraction,"A549 [2]; A549, 24h + 24h, dil. 1000x (stocks: diclofenac 0.918, PTA 0.483, AgNO3 0.326 mg/mL)",81.8 ± 6.8%
same,surviving fraction,"A549 [2]; A549, 72h + 24h, dil. 10 000x (stocks: diclofenac 0.918, PTA 0.483, AgNO3 0.326 mg/mL)",89.5 ± 8.2%
same,surviving fraction,"A549 [2]; A549, 72h + 24h, dil. 100x (stocks: diclofenac 0.918, PTA 0.483, AgNO3 0.326 mg/mL)",67.7 ± 6.5%
same,surviving fraction,"A549 [2]; A549, 72h + 24h, dil. 1000x (stocks: diclofenac 0.918, PTA 0.483, AgNO3 0.326 mg/mL)",78.5 ± 7.6%
same,surviving fraction,"DU-145 [3]; Du-145, 6h + 24h, dil. 10 000x (stocks: diclofenac 0.918, PTA 0.483, AgNO3 0.326 mg/mL)",99.5 ± 8.2%
same,surviving fraction,"DU-145 [3]; Du-145, 6h + 24h, dil. 100x (stocks: diclofenac 0.918, PTA 0.483, AgNO3 0.326 mg/mL)",78.2 ± 5.6%
same,surviving fraction,"DU-145 [3]; Du-145, 6h + 24h, dil. 1000x (stocks: diclofenac 0.918, PTA 0.483, AgNO3 0.326 mg/mL)",87.7 ± 9.8%
same,surviving fraction,"DU-145 [3]; Du-145, 24h + 24h, dil. 10 000x (stocks: diclofenac 0.918, PTA 0.483, AgNO3 0.326 mg/mL)",99.5 ± 10.7%
same,surviving fraction,"DU-145 [3]; Du-145, 24h + 24h, dil. 100x (stocks: diclofenac 0.918, PTA 0.483, AgNO3 0.326 mg/mL)",78.7 ± 7.6%
same,surviving fraction,"DU-145 [3]; Du-145, 24h + 24h, dil. 1000x (stocks: diclofenac 0.918, PTA 0.483, AgNO3 0.326 mg/mL)",88.4 ± 6.7%
same,surviving fraction,"DU-145 [3]; Du-145, 72h + 24h, dil. 10 000x (stocks: diclofenac 0.918, PTA 0.483, AgNO3 0.326 mg/mL)",88.7 ± 6.1%
same,surviving fraction,"DU-145 [3]; Du-145, 72h + 24h, dil. 100x (stocks: diclofenac 0.918, PTA 0.483, AgNO3 0.326 mg/mL)",70.8 ± 7.9%
same,surviving fraction,"DU-145 [3]; Du-145, 72h + 24h, dil. 1000x (stocks: diclofenac 0.918, PTA 0.483, AgNO3 0.326 mg/mL)",71.4 ± 8.5%
same,surviving fraction,"PANC-1 [4]; PANC-1, 6h + 24h, dil. 10 000x (stocks: diclofenac 0.918, PTA 0.483, AgNO3 0.326 mg/mL)",98.6 ± 7.8%
same,surviving fraction,"PANC-1 [4]; PANC-1, 6h + 24h, dil. 100x (stocks: diclofenac 0.918, PTA 0.483, AgNO3 0.326 mg/mL)",75.3 ± 6.4%
same,surviving fraction,"PANC-1 [4]; PANC-1, 6h + 24h, dil. 1000x (stocks: diclofenac 0.918, PTA 0.483, AgNO3 0.326 mg/mL)",84.5 ± 9.8%
same,surviving fraction,"PANC-1 [4]; PANC-1, 24h + 24h, dil. 10 000x (stocks: diclofenac 0.918, PTA 0.483, AgNO3 0.326 mg/mL)",89.5 ± 9.9%
same,surviving fraction,"PANC-1 [4]; PANC-1, 24h + 24h, dil. 100x (stocks: diclofenac 0.918, PTA 0.483, AgNO3 0.326 mg/mL)",71.2 ± 6.5%
same,surviving fraction,"PANC-1 [4]; PANC-1, 24h + 24h, dil. 1000x (stocks: diclofenac 0.918, PTA 0.483, AgNO3 0.326 mg/mL)",82.4 ± 7.7%
same,surviving fraction,"PANC-1 [4]; PANC-1, 72h + 24h, dil. 10 000x (stocks: diclofenac 0.918, PTA 0.483, AgNO3 0.326 mg/mL)",89.4 ± 6.3%
same,surviving fraction,"PANC-1 [4]; PANC-1, 72h + 24h, dil. 100x (stocks: diclofenac 0.918, PTA 0.483, AgNO3 0.326 mg/mL)",68.5 ± 6.9%
same,surviving fraction,"PANC-1 [4]; PANC-1, 72h + 24h, dil. 1000x (stocks: diclofenac 0.918, PTA 0.483, AgNO3 0.326 mg/mL)",80.3 ± 4.1%
same,surviving fraction,"HaCat [5]; 6h + 24h, dil. 10 000x (stocks: diclofenac 0.918, PTA 0.483, AgNO3 0.326 mg/mL)",99.6 ± 10.8%
same,surviving fraction,"HaCat [5]; 6h + 24h, dil. 100x (stocks: diclofenac 0.918, PTA 0.483, AgNO3 0.326 mg/mL)",86.5 ± 11.7%
same,surviving fraction,"HaCat [5]; 6h + 24h, dil. 1000x (stocks: diclofenac 0.918, PTA 0.483, AgNO3 0.326 mg/mL)",92.5 ± 9.1%
same,surviving fraction,"HaCat [5]; 24h + 24h, dil. 10 000x (stocks: diclofenac 0.918, PTA 0.483, AgNO3 0.326 mg/mL)",99.3 ± 12.8%
same,surviving fraction,"HaCat [5]; 24h + 24h, dil. 100x (stocks: diclofenac 0.918, PTA 0.483, AgNO3 0.326 mg/mL)",88.8 ± 5.8%
same,surviving fraction,"HaCat [5]; 24h + 24h, dil. 1000x (stocks: diclofenac 0.918, PTA 0.483, AgNO3 0.326 mg/mL)",99.2 ± 6.8%
same,surviving fraction,"HaCat [5]; 72h + 24h, dil. 10 000x (stocks: diclofenac 0.918, PTA 0.483, AgNO3 0.326 mg/mL)",102.3 ± 11.2%
same,surviving fraction,"HaCat [5]; 72h + 24h, dil. 100x (stocks: diclofenac 0.918, PTA 0.483, AgNO3 0.326 mg/mL)",88.4 ± 5.2%
same,surviving fraction,"HaCat [5]; 72h + 24h, dil. 1000x (stocks: diclofenac 0.918, PTA 0.483, AgNO3 0.326 mg/mL)",99.2 ± 5.9%
same,degradation of plasmid DNA,pBR322 plasmid,no degradation of DNA
same,IC50,MCF7,978 ± 10.4 µM
same,IC50,MRC5,977.3 ± 5.9 µM
same,IC50,A549 [6],699 ± 7.1 µM
same,IC50,DU-145 [7],803 ± 14.7 µM
same,IC50,PANC-1 [8],801 ± 124 µM
same,IC50,HaCat [9],1140 ± 18.3 µM
